In the NIST ThermoML archive (doi:10.1021/je700026d):
± gives the expanded uncertainty stated by the source.

Test: xn = mol fraction of the nth substance listed
Settings: Liquid; for speed of sound: 100 kPa, Linear variable-path acoustic interferometer; for viscosity / mass density: 101.3 kPa; for viscosity: Capillary tube (Ostwald / Ubbelohde) method; for mass density: Pycnometric method

CC(=O)c1ccccc1 [acetophenone] + NC=O
Settings | mass density, 298.15 K [kg/m3] | mass density, 308.15 K [kg/m3] | mass density, 318.15 K [kg/m3] | speed of sound, 298.15 K [m/s] | viscosity, 298.15 K [mPa·s] | viscosity, 308.15 K [mPa·s] | viscosity, 318.15 K [mPa·s]
x2 = 0 | 1023.1 ± 0.7 | 1014.8 ± 0.7 | 1007.5 ± 0.8 | 1296.4 ± 1.8 | 1.653 ± 0.014 | 1.412 ± 0.013 | 1.117 ± 0.012
x2 = 0.2286 | 1032.9 ± 0.9 | 1024.9 ± 0.9 | 1017.5 ± 0.9 | 1304.8 ± 2.5 | 2.234 ± 0.023 | 1.762 ± 0.019 | 1.377 ± 0.016
x2 = 0.4001 | 1042.9 ± 1.1 | 1035.1 ± 1.1 | 1027.5 ± 1.1 | 1323.3 ± 3.5 | 2.795 ± 0.033 | 2.077 ± 0.025 | 1.607 ± 0.02
x2 = 0.5334 | 1053.1 ± 1.3 | 1045.3 ± 1.3 | 1037.6 ± 1.3 | 1345.8 ± 5.3 | 3.267 ± 0.042 | 2.355 ± 0.031 | 1.825 ± 0.024
x2 = 0.6401 | 1063.3 ± 1.5 | 1055.5 ± 1.5 | 1047.7 ± 1.5 | 1379.3 ± 7.5 | 3.596 ± 0.05 | 2.587 ± 0.037 | 1.988 ± 0.028
x2 = 0.7273 | 1073.8 ± 1.7 | 1065.8 ± 1.7 | 1057.9 ± 1.7 | 1413.6 ± 10 | 3.778 ± 0.055 | 2.724 ± 0.04 | 2.1 ± 0.031
x2 = 0.8001 | 1084.4 ± 1.9 | 1076.3 ± 1.9 | 1068.2 ± 1.9 | 1456.5 ± 12 | 3.819 ± 0.057 | 2.779 ± 0.043 | 2.141 ± 0.033
x2 = 0.8616 | 1095.3 ± 2.1 | 1087 ± 2.1 | 1078.7 ± 2.1 | 1488.4 ± 13 | 3.735 ± 0.058 | 2.748 ± 0.044 | 2.111 ± 0.034
x2 = 0.9143 | 1106.4 ± 2.3 | 1097.9 ± 2.3 | 1089.4 ± 2.3 | 1527.3 ± 15 | 3.59 ± 0.057 | 2.685 ± 0.044 | 2.068 ± 0.034
x2 = 0.96 | 1117.7 ± 2.5 | 1109.1 ± 2.5 | 1100.1 ± 2.4 | 1558.9 ± 15 | 3.439 ± 0.056 | 2.608 ± 0.043 | 2.027 ± 0.034

NC=O [formamide] + CC#N
Settings | mass density, 298.15 K [kg/m3] | mass density, 308.15 K [kg/m3] | mass density, 318.15 K [kg/m3] | speed of sound, 298.15 K [m/s] | viscosity, 298.15 K [mPa·s] | viscosity, 308.15 K [mPa·s] | viscosity, 318.15 K [mPa·s]
x1 = 0.0919 | 803.8 ± 0.7 | 794.9 ± 0.7 | 785.6 ± 0.7 | 1277.7 ± 6.7 | 0.402 ± 0.007 | 0.366 ± 0.007 | 0.339 ± 0.007
x1 = 0.1856 | 832.8 ± 0.7 | 824.1 ± 0.7 | 815.8 ± 0.8 | 1299.6 ± 7.1 | 0.485 ± 0.008 | 0.432 ± 0.007 | 0.396 ± 0.007
x1 = 0.2809 | 863.4 ± 0.8 | 855.1 ± 0.8 | 847.4 ± 0.8 | 1322.8 ± 7.4 | 0.593 ± 0.009 | 0.522 ± 0.008 | 0.472 ± 0.008
x1 = 0.3779 | 895.8 ± 0.9 | 887.4 ± 0.9 | 879.9 ± 0.9 | 1349.6 ± 7.9 | 0.733 ± 0.01 | 0.635 ± 0.009 | 0.565 ± 0.009
x1 = 0.4768 | 929.2 ± 1 | 921.2 ± 1 | 914 ± 1 | 1380.8 ± 8.2 | 0.921 ± 0.012 | 0.786 ± 0.011 | 0.687 ± 0.01
x1 = 0.5775 | 965.2 ± 1.2 | 956.6 ± 1.2 | 950.7 ± 1.2 | 1412.8 ± 8.5 | 1.168 ± 0.016 | 0.978 ± 0.014 | 0.847 ± 0.012
x1 = 0.6802 | 1002.9 ± 1.4 | 994.4 ± 1.4 | 989.4 ± 1.4 | 1449 ± 9 | 1.507 ± 0.021 | 1.239 ± 0.018 | 1.046 ± 0.015
x1 = 0.7847 | 1042.6 ± 1.7 | 1034.7 ± 1.7 | 1029.3 ± 1.7 | 1488.8 ± 9.3 | 1.945 ± 0.029 | 1.569 ± 0.024 | 1.295 ± 0.02
x1 = 0.8913 | 1085.1 ± 2.1 | 1076.9 ± 2.1 | 1071.6 ± 2.1 | 1529.8 ± 11 | 2.54 ± 0.04 | 1.999 ± 0.032 | 1.615 ± 0.026
x1 = 1 | 1129.2 ± 2.6 | 1120.5 ± 2.6 | 1111.1 ± 2.6 | 1591.3 ± 5.3 | 3.302 ± 0.055 | 2.542 ± 0.043 | 2.001 ± 0.034

NC=O [formamide] + C[S+](C)[O-]
Settings | mass density, 298.15 K [kg/m3] | mass density, 308.15 K [kg/m3] | mass density, 318.15 K [kg/m3] | speed of sound, 298.15 K [m/s] | viscosity, 298.15 K [mPa·s] | viscosity, 308.15 K [mPa·s] | viscosity, 318.15 K [mPa·s]
x1 = 0.1616 | 1099.3 ± 2.5 | 1090.7 ± 2.5 | 1082.7 ± 2.5 | 1480.1 ± 3.5 | 2.457 ± 0.041 | 1.859 ± 0.031 | 1.64 ± 0.027
x1 = 0.3025 | 1102.8 ± 2.5 | 1094.9 ± 2.5 | 1087.3 ± 2.5 | 1480.6 ± 3.4 | 2.868 ± 0.048 | 2.135 ± 0.036 | 1.823 ± 0.03
x1 = 0.4264 | 1106.3 ± 2.5 | 1098.5 ± 2.5 | 1090.9 ± 2.5 | 1483.9 ± 3.5 | 3.214 ± 0.054 | 2.365 ± 0.04 | 1.968 ± 0.033
x1 = 0.5363 | 1109.5 ± 2.6 | 1101.6 ± 2.5 | 1093.9 ± 2.5 | 1492.3 ± 3.9 | 3.468 ± 0.058 | 2.52 ± 0.043 | 2.059 ± 0.035
x1 = 0.6343 | 1112.6 ± 2.6 | 1104.6 ± 2.6 | 1096.7 ± 2.5 | 1502.9 ± 4.1 | 3.608 ± 0.061 | 2.621 ± 0.045 | 2.112 ± 0.036
x1 = 0.7224 | 1115.8 ± 2.6 | 1107.6 ± 2.6 | 1099.5 ± 2.6 | 1512.7 ± 4.4 | 3.652 ± 0.062 | 2.653 ± 0.045 | 2.118 ± 0.036
x1 = 0.8019 | 1119.1 ± 2.6 | 1110.7 ± 2.6 | 1102.3 ± 2.6 | 1526.4 ± 5.3 | 3.626 ± 0.061 | 2.639 ± 0.045 | 2.083 ± 0.035
x1 = 0.874 | 1122.5 ± 2.6 | 1113.9 ± 2.6 | 1105.3 ± 2.6 | 1543.7 ± 6.1 | 3.54 ± 0.059 | 2.613 ± 0.044 | 2.054 ± 0.035
x1 = 0.9398 | 1125.8 ± 2.6 | 1117.2 ± 2.6 | 1108.2 ± 2.6 | 1561.2 ± 8.3 | 3.426 ± 0.057 | 2.571 ± 0.044 | 2.021 ± 0.034
x1 = 1 | 1129.2 ± 2.6 | 1120.5 ± 2.6 | 1111.1 ± 2.6 | 1591.3 ± 3.4 | 3.302 ± 0.055 | 2.542 ± 0.043 | 2.001 ± 0.034
